The record followed here is patent US20120101099A1, “HISTONE DEACETYLASE INHIBITORS” (ANTHEM BIOSCIENCES PRIVATE LIMITED, priority 2009, published 2012).

SMILES strings stand for the structures.

In one data set the target is T1, HDAC2 (Homo sapiens, UniProt Q92769).
T1 construct: purchased Biomol, USA
Description: biochemical. Here is the method:
Assay was performed in 96-well black microplate and total volume of the assay was 100 μL. Hela nuclear extract was diluted HDAC assay buffer (final concentration of 3.0 μg/mL). Enzyme mixture was made of 10 μL of diluted enzyme and 30 μL of HDAC buffer. 40 μl of enzyme mixture followed by 10 μL of test compound (final concentration from 0.01 to 10 μM) or vehicle (control) was added to each well. The plate was pre-incubated at 37° C. for 10 minutes. The HDAC reaction was started by adding 50 μl of HDAC substrate Boc-Lys (Ac)-AMC (Anaspec, Inc Fremont, Calif., USA). The plate was incubated at 37° C. for 45 minutes. The reaction was stopped by adding 50 μL of Trypsin stop solution and plate further incubated at 37° C. for 15 minutes. Measuring the fluorescence at excitation wavelength of 360 nm and emission wavelength of 460 nm monitored the release of AMC. Buffer alone and substrate alone served as blank.

Data set [1] concerns A549 human lung xenograft. The data set is described as follows: In vivo anti-cancer activity using a human tumor xenograft. More on the design: species or system athymic nude mice (nu/nu). The note with it: for % TGI on Day 21: p.o, once daily. Here is the method: The study was carried out in athymic nude mice (nu/nu) of BALB-c background at age 6-8 weeks. The animals were maintained in Individually Ventilated cages in a protected and controlled environment. All animal handling and procedures were carried out in a laminar air flow hood, under anesthesia when necessary. The studies were conducted in compliance with protocols approved by Anthem Biosciences Institutional Animal Ethics Committee (IAEC).
Human cell lines derived from tumors of lung were selected for evaluation. The tumor cells cell lines were grown and expanded in RPMI 1640 (supplemented with 1.5 mM L-glutamine and 10% FBS) Subconfluent monolayers were harvested, pelleted and resuspended in RPMI 1640 medium prior to counting on a haemocytometer. Viable cells were counted using trypan blue exclusion and a cell suspension was made in cold media with a concentration of 5×10^6/ml.
[…] of the cell suspension containing 10^6 cells of greater than 90% viability was mixed with an equal volume of Matrigel (10 mg/ml) in PBS (pH7.4) and was kept at 4 deg C. Nude mice were anaesthetized and were injected subcutaneously in the flank region with 0.1 ml using a 25 gauge needle. Animals were monitored daily during the period between inoculation and palpable tumor growth. Tumor size was measured with a digital Vernier caliper and tumor-bearing mice were randomized into control and treatment groups (n=10) when sufficient tumor volume was attained (approx. 100 mm3). The following formula was used to calculate the tumor volume:
Tumor volume=(length×width2)/2.
[…] Tumor volume and was body weight was measured three times per week.
(In general: In xenograft studies the graft and the host belong to different species.)

Data set [2] concerns recombinant HDAC isoforms. The data set is described as follows: Isoform selectivity assay (overall statement). As to conditions: HDAC1, HDAC2, HDAC3, HDAC6, HDAC8.
Description: (§1) Following the HDAC inhibition assay using Hela nuclear extract, isoform selectivity was tested using recombinant HDAC isoforms (Biomol, USA).
Another data set addresses HDAC1 (Homo sapiens, UniProt Q13547). Description: Isoform selectivity assay, recombinant HDAC isoforms.
For a further data set, the target named is HDAC3 (Homo sapiens, UniProt O15379). The description is as above.
The next data set concerns the target HDAC6 (Homo sapiens, UniProt Q9UBN7). The description is as above.
In another data set the target is HDAC8 (Homo sapiens, UniProt Q9BY41). Described as above.
A short description of data set [3]: Oral bioavailability and pharmacokinetics studies. It is filed as in vivo, male Balb/c mice. As to conditions: male Balb/c mouse. Here is the method:
The studies were performed to determine the oral bioavailability and pharmacokinetics of test compounds in male Balb/c mice. Study was performed after obtaining the Institutional Animal Ethics Committee (IAEC) permission. Mice aged 5 to 6 weeks weighing around 25 to 30 g were used for this study. The animals were fasted overnight with free access to water. Animals were administered test compounds by oral route at a 50 mg/kg body weight (formulation: 0.5% methylcellulose in water and 0.1% tween 80. Dose volume 10 ml/kg b.w.) or intravenous route at a dose 10 mg/kg b.w. […] (formulation: 0.9% saline. Dose volume 10 ml/kg b.w.) Blood samples were collected at various time points during the next 24 hours post dose. The blood samples were centrifuged at 3000 g for 5 minutes at 4° C. and the corresponding plasma samples were collected in clean pre-labeled tubes. Then, each sample was subjected to a suitable extraction method and analysed by LC-MS/MS (API 3200 LC-MS/MS system). Data was analyzed using WinNonlin version 5.2 (Pharsight).

As usually defined, the IC50 is the concentration that gives 50% inhibition. In general, bioavailability refers to dose-corrected exposure relative to a reference, in per cent. As a reminder, the Cmax is the highest concentration seen after dosing. The term Tmax denotes the time at which the peak concentration occurs.

HDAC1, sequence (Q13547 whole entry, canonical isoform): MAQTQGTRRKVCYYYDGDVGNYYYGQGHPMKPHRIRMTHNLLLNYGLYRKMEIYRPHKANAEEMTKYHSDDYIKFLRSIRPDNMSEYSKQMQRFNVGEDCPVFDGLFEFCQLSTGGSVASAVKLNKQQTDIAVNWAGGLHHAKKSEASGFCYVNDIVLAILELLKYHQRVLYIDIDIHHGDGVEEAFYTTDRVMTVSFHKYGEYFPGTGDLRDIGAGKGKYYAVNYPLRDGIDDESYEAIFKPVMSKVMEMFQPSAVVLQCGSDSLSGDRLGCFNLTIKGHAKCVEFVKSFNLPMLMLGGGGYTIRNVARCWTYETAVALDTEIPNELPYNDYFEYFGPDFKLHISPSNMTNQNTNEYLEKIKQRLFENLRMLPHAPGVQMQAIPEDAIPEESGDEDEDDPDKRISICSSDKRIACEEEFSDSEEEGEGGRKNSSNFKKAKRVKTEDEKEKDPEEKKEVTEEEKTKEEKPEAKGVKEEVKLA
HDAC6, sequence (Q9UBN7 whole entry): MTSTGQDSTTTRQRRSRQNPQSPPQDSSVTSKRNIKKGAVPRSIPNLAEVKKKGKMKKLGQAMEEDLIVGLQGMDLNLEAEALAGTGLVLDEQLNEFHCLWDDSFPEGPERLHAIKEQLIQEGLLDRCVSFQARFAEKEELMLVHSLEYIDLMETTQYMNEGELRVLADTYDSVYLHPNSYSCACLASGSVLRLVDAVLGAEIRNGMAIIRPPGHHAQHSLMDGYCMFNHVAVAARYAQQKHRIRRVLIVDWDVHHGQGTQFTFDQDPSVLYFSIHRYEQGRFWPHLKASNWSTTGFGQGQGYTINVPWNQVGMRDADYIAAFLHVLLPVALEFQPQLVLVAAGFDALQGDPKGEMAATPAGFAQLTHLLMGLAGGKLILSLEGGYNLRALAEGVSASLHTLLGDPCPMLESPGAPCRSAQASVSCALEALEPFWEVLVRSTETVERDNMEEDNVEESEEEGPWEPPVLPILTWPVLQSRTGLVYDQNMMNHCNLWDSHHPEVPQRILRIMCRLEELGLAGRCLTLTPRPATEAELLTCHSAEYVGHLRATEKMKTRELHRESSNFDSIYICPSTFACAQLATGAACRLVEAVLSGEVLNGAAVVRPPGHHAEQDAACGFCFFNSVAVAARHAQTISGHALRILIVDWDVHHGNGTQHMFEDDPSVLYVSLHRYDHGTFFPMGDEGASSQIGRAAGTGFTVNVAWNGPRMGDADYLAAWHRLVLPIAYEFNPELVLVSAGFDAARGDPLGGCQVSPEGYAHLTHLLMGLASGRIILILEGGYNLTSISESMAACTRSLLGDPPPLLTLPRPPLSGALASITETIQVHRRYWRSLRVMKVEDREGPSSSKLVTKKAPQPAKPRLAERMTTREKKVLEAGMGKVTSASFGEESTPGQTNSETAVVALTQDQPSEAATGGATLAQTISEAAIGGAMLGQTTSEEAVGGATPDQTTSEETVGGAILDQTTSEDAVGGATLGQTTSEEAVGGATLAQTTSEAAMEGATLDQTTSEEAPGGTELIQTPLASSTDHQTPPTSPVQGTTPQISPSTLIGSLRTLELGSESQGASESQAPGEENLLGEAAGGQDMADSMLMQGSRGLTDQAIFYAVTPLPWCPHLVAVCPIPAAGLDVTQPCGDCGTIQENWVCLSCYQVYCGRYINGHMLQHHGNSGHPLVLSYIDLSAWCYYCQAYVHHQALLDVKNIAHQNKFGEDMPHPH
HDAC8, sequence (Q9BY41 whole entry): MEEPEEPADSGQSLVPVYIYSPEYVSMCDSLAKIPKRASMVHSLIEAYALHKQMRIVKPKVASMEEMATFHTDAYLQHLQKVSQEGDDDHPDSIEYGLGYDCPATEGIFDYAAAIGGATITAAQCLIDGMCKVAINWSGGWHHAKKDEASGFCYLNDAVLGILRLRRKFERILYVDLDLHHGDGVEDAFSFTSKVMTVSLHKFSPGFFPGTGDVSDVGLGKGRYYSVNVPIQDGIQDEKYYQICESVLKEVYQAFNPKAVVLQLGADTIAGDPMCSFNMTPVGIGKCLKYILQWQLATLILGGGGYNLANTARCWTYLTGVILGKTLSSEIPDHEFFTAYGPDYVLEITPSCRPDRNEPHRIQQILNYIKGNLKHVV
HDAC3, sequence (O15379 whole entry): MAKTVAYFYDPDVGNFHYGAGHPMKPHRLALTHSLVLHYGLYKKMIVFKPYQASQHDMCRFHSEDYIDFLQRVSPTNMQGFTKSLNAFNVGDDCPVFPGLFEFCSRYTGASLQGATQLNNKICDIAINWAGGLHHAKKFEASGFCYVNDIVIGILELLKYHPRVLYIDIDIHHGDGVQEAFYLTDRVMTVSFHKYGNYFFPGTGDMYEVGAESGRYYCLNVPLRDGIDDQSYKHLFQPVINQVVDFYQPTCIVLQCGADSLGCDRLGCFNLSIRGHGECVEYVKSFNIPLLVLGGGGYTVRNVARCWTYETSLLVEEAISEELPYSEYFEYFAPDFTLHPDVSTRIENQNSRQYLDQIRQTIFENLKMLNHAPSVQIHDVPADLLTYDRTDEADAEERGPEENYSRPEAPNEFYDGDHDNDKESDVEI
T1 sequence (Q92769 whole entry): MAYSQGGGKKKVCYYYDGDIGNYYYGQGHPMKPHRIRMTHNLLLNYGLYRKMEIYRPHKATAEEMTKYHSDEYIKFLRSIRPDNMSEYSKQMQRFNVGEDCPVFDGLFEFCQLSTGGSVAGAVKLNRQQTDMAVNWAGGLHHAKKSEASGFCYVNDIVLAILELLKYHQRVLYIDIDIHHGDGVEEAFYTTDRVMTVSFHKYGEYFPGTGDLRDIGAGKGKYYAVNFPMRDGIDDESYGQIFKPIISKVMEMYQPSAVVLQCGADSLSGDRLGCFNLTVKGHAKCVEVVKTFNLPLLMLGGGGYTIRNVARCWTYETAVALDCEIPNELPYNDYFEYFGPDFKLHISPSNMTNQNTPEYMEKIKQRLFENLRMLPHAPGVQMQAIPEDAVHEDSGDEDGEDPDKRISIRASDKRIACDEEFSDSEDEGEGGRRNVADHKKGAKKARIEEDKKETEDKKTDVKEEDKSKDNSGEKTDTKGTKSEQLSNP
Description for HDAC1: as §1
Description for HDAC3: as §1
Description for HDAC6: as §1
Description for HDAC8: as §1

For the molecule `O=C(NO)c1ccc(Cn2cc(-c3ccc(CN4CCCC4)cc3)nn2)cc1` [Example 8, N-Hydroxy-4-[4-(4-pyrrolidin-1-ylmethyl-phenyl)-[1,2,3]triazol-1-ylmethyl]-benzamide], the IC50 against HDAC2 worked out at 29 nM; on HDAC1, 25 nM; at HDAC3, 2 nM; at HDAC6 it was 11 nM; at HDAC8, 282 nM. The “% TGI on Day 21” value in data set [1] (12.5 mg/kg, listed as Ex. 8) was 27.3%; in data set [1] (12.5 mg/kg, listed as Ex.8), 27%; in data set [1] (25 mg/kg, listed as Ex. 8), 36.9%; in data set [1] (25 mg/kg, listed as Ex.8), 32%; in data set [1] (50 mg/kg, listed as Ex. 8), 52.1%; in data set [1] (50 mg/kg, listed as Ex.8) it was 57%. Besides, the “body weight compared to the vehicle control group” value in data set [1] (21 days oral treatment) was “no significant reduction in body weight”. The “isoform selectivity” value in data set [2] is “pan-HDAC inhibitor”.

For the molecule `O=C(CCCCCCC(=O)Nc1ccccc1)NO` [SAHA, Suberoylanilide Hydroxamic Acid, reference compound], in data set [3] (oral 50 mg/kg), the “AUC last 0 to 24 h” value turned out to be 347 ng·h/mL and the T1/2 was found to be 48 min. For the same molecule, in data set [3] (plasma, oral 50 mg/kg vs intravenous), the bioavailability was 11 ± 3%. In data set [3] (plasma, oral 50 mg/kg), the Cmax was determined as 580 ng/mL and the Tmax was 4.8 min. Also, the “% TGI on Day 21” value in data set [1] (150 mg/kg) is given as 53.6%.
